Experimental data as given in patent US6528535B2, “Bicyclic inhibitors of protein farnesyl transferase” (Warner-Lambert Company, priority 1997, dated 2003).
Structures can show the parent of a compound that is named as a salt. Where two headings read alike, the source gives them in different places.

Assays:
[1] = target: T1, SF9 affinity purified rat FPT (Rattus norvegicus, UniProt Q02293+Q04631); assay: PFT (farnesyl protein transferase) inhibitory activity, radiolabeled farnesyl pyrophosphate / biotinyl peptide bead assay; type: biochemical; conditions: read-out: FTase, IC50
T1 construct: made in house; host or cells: Sf9 insect cells
Method: The protein:farnesyl transferase (PFT) or farnesyl protein transferase (FPT) inhibitory activity of compounds of the present invention were assayed in HEPES buffer (pH 7.4) containing 5 mM potassium phosphate and 20 μM ZnCl2. The solution also contained 5 mM DTT (dithiothreitol), 5 mM MgCl2, and 0.1% PEG 8000. Assays were performed in 96 well plates (Wallec) and employed solutions composed of varying concentrations of a compound of the present invention in 10% DMSO (dimethylsulfoxide). Upon addition of both substrates, radiolabeled farnesyl pyrophosphate ([1^3H], specific activity 15-30 Ci/mmol, final concentration 134 nM) and (biotinyl)-Ahe-Thr-Lys-Cys-Val-Ile-Met ([3aS[3a alpha, 4 beta, 6a alpha]-hexahydro-2-oxo-1H-thieno[3,4-d]imidazole-5-pentanoic acid]-[7-aminoheptanoic acid]-Thr-Lys-Cys-Val-Ile-Met) (Ahe is 7-aminoheptanoic acid, Thr is threonine, Lys is lysine, Cys is cysteine, Val is valine, Ile is isoleucine, and Met is methionine) (final concentration 0.2 μM), the enzyme reaction was started by addition of SF9 affinity purified rat FPT. After incubation at 30° C. for 30 minutes, the reaction was terminated by diluting the reaction 2.5-fold with a stop buffer containing 1.5 M magnesium acetate, 0.2 M H3PO4, 0.5% BSA (bovine serum albumin), and strepavidin beads (Amersham) at a concentration of 1.3 mg/mL. After allowing the plate to settle for 30 minutes at room temperature, radioactivity was quantitated on a microbeta counter (Model 1450, Wallec). The assay was also carried out without 5 mM potassium phosphate.

[2] = average of two tests unless n is given in parentheses

Row | SMILES | IC50 [1, 2] | melting point | IC50 ([1]; Examples 56-74, parallel synthesis array: single test, values adjusted to account for the purity of the sample)
1 | Cl.O=C1CCCc2cc(OCCCc3c[nH]cn3)ccc21 [Example 43, 6-[3-(1H-Imidazole-4-yl)-propoxy]-3,4-dihydro-2H-naphthalen-1-one, hydrochloride] | 4400 nM | 153 to 155 °C | –
2 | CC1(C)CC(=O)c2ccc(OCCn3ccnc3)cc2O1 [Example 83, 7-[2-(1H-Imidazolyl)ethoxy]-2,2-dimethyl-4-chromanone] | 900 nM | 84 to 86 °C | –
3 | O=C1C(=Cc2ccc([N+](=O)[O-])s2)CCc2cc(OCCn3ccnc3)ccc21 [Example 22, 6-(2-Imidazole-1-yl-ethoxy)-2-(5-nitro-thiophen-2-ylmethylene)-3,4-dihydro-2H-naphthalen-1-one] | 370 nM | > 240 °C | –
4 | O=c1ccoc2cc(OCCn3ccnc3)ccc12 [Example 50, 7-[2-(1H-1-Imidazolyl)ethoxy]-4H-4-chromenone] | 2600 nM | 131 to 133 °C | –
5 | O=c1cc(-c2ccccc2)oc2cc(OCCn3ccnc3)ccc12 [Example 77, 7-[2-(1H-1-Imidazolyl)ethoxy]-2-phenyl-4H-4-chromenone] | 9300 nM | 155 to 159 °C | –
6 | Cc1cc2c(cc1OCCn1ccnc1)CC/C(=C\c1cccs1)C2=O [Example 46, 6-[2-(1H-1-Imidazolyl)ethoxy]-7-methyl-2-[(E)-1-(2-thienyl)methylidene]-1,2,3,4-tetrahydro-1-naphthalenone] | 15400 nM | 150 to 151 °C | –
7 | O=C1C(=Cc2ccc(Br)cc2)CCc2cc(OCCc3c[nH]cn3)ccc21 [Example 42, 2-(4-Bromo-benzylidene)-6-[2-(1H-imidazole-4-yl)-ethoxy]-3,4-dihydro-2H-naphthalen-1-one] | 5900 nM | 176 to 178 °C | –
8 | O=C1C(=Cc2ccsc2)CCc2cc(OCCc3c[nH]cn3)ccc21 [Example 28, 6-[2-(1H-Imidazole-4-yl)-ethoxy]-2-thiophen-3-ylmethylene-3,4-dihydro-2H-naphthalen-1-one] | 170 nM | 94 to 96 °C | –
9 | ON=C1CCCc2cc(OCCn3ccnc3)ccc21 [Example 53, 6-[2-(1H-1-Imidazolyl)ethoxyl]-1,2,3,4-tetrahydro-1-naphthalenone oxime] | 3000 nM | 177 to 179 °C | –
10 | CC(=C1CCc2cc(OCCc3c[nH]cn3)ccc2C1=O)c1ccccc1 (as salt: HCl) [Example 40, 6-[2-(1H-Imidazole-4-yl)-ethoxy]-2-(1-phenyl-ethylidene)-3,4-dihydro-2H-naphthalen-1-one] | – | 170 to 172 °C | –
11 | CSc1ccc(C=C2CCc3cc(OCCn4ccnc4)ccc3C2=O)cc1 [Example 4] | 78 nM | 161 to 161.5 °C | –
12 | O=C1C(=Cc2ccco2)CCc2cc(OCCn3ccnc3)ccc21 [Example 16, 2-Furan-2-ylmethylene-6-(2-imidazole-1-yl-ethoxy)-3,4-dihydro-2H-naphthalen-1-one] | 110 nM | 109 to 110 °C | –
13 | O=C1C(=Cc2cc(Br)cs2)CCc2cc(OCCn3ccnc3)ccc21 [Example 17, 2-(4-Bromo-thiophen-2-ylmethylene)-6-(2-imidazole-1-yl-ethoxy)-3,4-dihydro-2H-naphthalen-1-one] | 100 nM | 164 to 166 °C | –
14 | Cc1ccsc1C=C1CCc2cc(OCCc3c[nH]cn3)ccc2C1=O [Example 39, 6-[2-(1H-Imidazole-4-yl)-ethoxy]-2-(3-methyl-thiophen-2-ylmethylene)-3,4-dihydro-2H-naphthalen-1-one] | 3100 nM | 191 to 193 °C | –
15 | O=C1C(=Cc2cccs2)CCc2cc(OCCn3ccnc3)ccc21 [Example 14, 6-(2-Imidazole-1-yl-ethoxy)-2-thiophen-2-ylmethylene-3,4-dihydro-2H-naphthalen-1-one] | 89 nM | 137 to 138 °C | –
16 | O=C1/C(=C/c2cccs2)CNc2cc(OCCn3ccnc3)ccc21 [Example 49, 7-[2-(1H-1-Imidazolyl)ethoxy]-3-[(E)-1-(2-thienyl)methylidene]-1,2,3,4-tetrahydro-4-quinolinone] | – | 211 to 213 °C | –

Row | SMILES | IC50 [1, 2] | melting point | IC50 ([1]; Examples 56-74, parallel synthesis array: single test, values adjusted to account for the purity of the sample)
17 | O=C1C(=Cc2ccccc2)CCc2cc(OCCc3c[nH]cn3)ccc21 [Example 30, 2-Benzylidene-6-[2-(1H-imidazole-4-yl)-ethoxy]-3,4-dihydro-2H-naphthalen-1-one] | 890 nM | 53 to 56 °C | –
18 | O=C1C(=Cc2cccs2)CCc2cc(OCCc3c[nH]cn3)ccc21 [Example 29, 6-[2-(1H-Imidazole-4-yl)-ethoxy]-2-thiophen-2-ylmethylene-3,4-dihydro-2H-naphthalen-1-one] | 88 nM | 60 to 63 °C | –
19 | O=C1c2ccc(OCCn3ccnc3)cc2CCC1Cc1ccc(Br)cc1 (stereo not drawn) [Example 13, 2-(4-Bromo-benzyl)-6-(2-imidazole-1-yl-ethoxy)-3,4-dihydro-2H-naphthalen-1-one] | 290 nM | 129 to 130.5 °C | –
20 | CSc1ccc(C=C2CCc3cc(OCCn4ccnc4)ccc3C2=O)s1 [Example 19, 6-(2-Imidazole-1-yl-ethoxy)-2-(5-methylsulfanyl-thiophen-2-ylmethylene)-3,4-dihydro-2H-naphthalen-1-one] | 700 nM | 102 to 104 °C | –
21 | CSc1ccc(C=C2CCc3cc(OCCc4c[nH]cn4)ccc3C2=O)cc1 [Example 31, 6-[2-(1H-Imidazole-4-yl)-ethoxy]-2-(4-methylsulfanyl-benzylidene)-3,4-dihydro-2H-naphthalen-1-one] | 590 nM | 65 to 70 °C | –
22 | O=C1C(=Cc2ccc(-c3cccs3)s2)CCc2cc(OCCn3ccnc3)ccc21 [Example 21, 2-[2,2′]Bithiophenyl-5-ylmethylene-6-(2-imidazole-1-yl-ethoxy)-3,4-dihydro-2H-naphthalen-1-one] | 2800 nM | 180 to 181 °C | –
23 | O=C1C(=Cc2ccc([N+](=O)[O-])cc2)CCc2cc(OCCn3ccnc3)ccc21 [Example 7, 6-(2-Imidazole-1-yl-ethoxy)-2-(4-nitro-benzylidene)-3,4-dihydro-2H-naphthalen-1-one] | 1700 nM | 184 to 185 °C | –
24 | O=C1C(=Cc2ccoc2)CCc2cc(OCCn3ccnc3)ccc21 [Example 23, 2-Furan-3-ylmethylene-6-(2-imidazole-1-yl-ethoxy)-3,4-dihydro-2H-naphthalen-1-one] | 1600 nM | 116 to 117 °C | –
25 | Cc1ccc(C=C2CCc3cc(OCCc4c[nH]cn4)ccc3C2=O)s1 [Example 37, 6-[2-(1H-Imidazole-4-yl)-ethoxy]-2-(5-methyl-thiophen-2-ylmethylene)-3,4-dihydro-2H-naphthalen-1-one] | 490 nM | 69 to 70 °C | –
26 | CC(COc1ccc2c(c1)CC/C(=C\c1cccs1)C2=O)n1ccnc1 (stereo not drawn) [Example 79, 6-[2-(1H-1-Imidazolyl)propoxy]-2-[(E)-1-(2-thienyl)methylidene]-1,2,3,4-tetrahydro-1-naphthalenone] | 230 nM | 160 to 162 °C | –
27 | Cc1c(OCCn2ccnc2)ccc2c1CC/C(=C\c1cccs1)C2=O [Example 48, 6-[2-(1H-1-Imidazolyl)ethoxy]-5-methyl-2-[(E)-1-(2-thienyl)methylidene]-1,2,3,4-tetrahydro-1-naphthalenone] | 400 nM | 182 to 184 °C | –
28 | O=C1C(=Cc2ccncc2)CCc2cc(OCCn3ccnc3)ccc21 [Example 6, 6-(2-Imidazole-1-yl-ethoxy)-2-pyridin-4-ylmethylene-3,4-dihydro-2H-naphthalen-1-one] | 1260 nM | 128.5 to 129 °C | –
29 | O=C1C(=Cc2ccc(Br)cc2)CCc2cc(OCCn3ccnc3)ccc21 [Example 5, 2-(4-Bromo-benzylidene)-6-(2-imidazole-1-yl-ethoxy)-3,4-dihydro-2H-naphthalen-1-one] | 1370 nM | 152 to 153 °C | –
30 | CSc1ccc(CC2CCc3cc(OCCn4ccnc4)ccc3C2=O)cc1 (stereo not drawn) [Example 10, 6-(2-Imidazole-1yl-ethoxy)-2-(4-methylsulfanyl-benzyl)-3,4-dihydro-2H-naphthalen-1-one] | 370 nM | 114 to 117 °C | –
31 | O=C1/C(=C/c2c(Cl)cccc2Cl)CCc2cc(OCCn3ccnc3)ccc21 [Example 62, 2-[(E)-1-(2,6-Dichlorophenyl)methylidene]-6-[2-(1H-1-imidazolyl)ethoxy]-1,2,3,4-tetrahydro-1-naphthalenone] | – | – | 540 nM
32 | O=C(O)c1ccc(C=C2CCc3cc(OCCc4c[nH]cn4)ccc3C2=O)s1 [Example 38, 5-{6-[2-(1H-Imidazol-4-yl)-ethoxy]-1-oxo-3,4-dihydro-1H-naphthalen-2-ylidenemethyl}-thiophene-2-carboxylic acid] | 4300 nM | – | –
